Columns and labels:
MtmOIV [1] = target: T1, MtmOIV (Streptomyces argillaceus, UniProt Q194P4); assay: X-ray crystal structure, […] Å; assay type: binding; conditions: non-covalently bound
MtmOIV [2] = target: MtmOIV (Streptomyces argillaceus, UniProt Q194P4, R173A, form not given); assay: NADPH oxidation, fluorescence; assay type: biochemical; conditions: 2 mM premithramycin B, 0.1 mM FAD, O2; 100 mM Tris-HCl pH 8.25, 30 °C
MtmOIV [3] = target: T1, MtmOIV; assay: NADPH oxidation, fluorescence; assay type: biochemical; conditions: 2 mM premithramycin B, 0.1 mM FAD, O2; 100 mM Tris-HCl pH 8.25, 30 °C

Row | Km (MtmOIV [2]) [µM] | Km (MtmOIV [3]) [µM] | SMILES | X-ray crystal structure, 2.0 Å (MtmOIV [1])
1 | – | – | Cc1cc2nc3c(=O)[nH]c(=O)nc-3n(C[C@H](O)[C@H](O)[C@H](O)COP(=O)(O)OP(=O)(O)OC[C@H]3O[C@@H](n4cnc5c(N)ncnc54)[C@H](O)[C@@H]3O)c2cc1C [FAD] | a single non-covalently bound FAD cofactor
2 | 528 ± 63 | 372 ± 68 | NC(=O)C1=CN([C@@H]2O[C@H](COP(=O)(O)OP(=O)(O)OC[C@H]3O[C@@H](n4cnc5c(N)ncnc54)[C@H](OP(=O)(O)O)[C@@H]3O)[C@@H](O)[C@H]2O)C=CC1 [NADPH] | –
